Source: ChEMBL document CHEMBL4622850, “Discovery and optimization of new oxadiazole substituted thiazole RORγt inverse agonists through a bioisosteric amide replacement approach” (Bioorg Med Chem Lett, 2020)
Values after ≈ are worked out from the molar mass of the structure shown.

Legend:
[1] = Protein binding in human plasma; type: ADME, cell-free; conditions: read-out: PPB (converted)
[2] = molecular target: T1, Nuclear receptor ROR-gamma (Mus musculus) (UniProt P51450); assay: In vivo inhibition of RORgammat in mouse assessed as reduction in IL-17a production at 3 mg/kg, po measured after 1 hr relative to control; type: functional, organism-based
T1 sequence (whole entry): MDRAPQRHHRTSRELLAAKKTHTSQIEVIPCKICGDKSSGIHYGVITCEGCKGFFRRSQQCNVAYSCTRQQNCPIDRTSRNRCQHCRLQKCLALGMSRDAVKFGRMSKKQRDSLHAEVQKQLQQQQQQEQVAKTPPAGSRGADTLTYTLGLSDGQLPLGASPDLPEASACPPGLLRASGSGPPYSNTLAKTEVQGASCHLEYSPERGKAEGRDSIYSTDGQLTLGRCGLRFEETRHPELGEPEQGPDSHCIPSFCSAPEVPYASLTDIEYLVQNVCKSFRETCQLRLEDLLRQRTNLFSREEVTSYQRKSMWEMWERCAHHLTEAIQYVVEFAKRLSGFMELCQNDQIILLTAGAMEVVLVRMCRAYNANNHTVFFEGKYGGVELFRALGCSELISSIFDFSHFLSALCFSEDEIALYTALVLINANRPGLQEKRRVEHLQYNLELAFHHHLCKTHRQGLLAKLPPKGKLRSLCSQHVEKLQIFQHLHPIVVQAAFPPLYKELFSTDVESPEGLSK

[3] = molecular target: T2, Nuclear receptor ROR-gamma (Mus musculus, UniProt P51450); assay: Inverse agonist activity at RORgammat in mouse whole blood assessed as reduction in IL-17a production; type: tissue-based
T2 sequence (P51450 whole entry): T1 sequence (whole entry)

[4] = Cmax in rat at 1000 mg/kg, po measured on day 1; type: ADME, organism-based; set-up: dose 1000 mg/kg, route oral; conditions: in vivo
[5] = molecular target: T3, Nuclear receptor subfamily 1 group I member 2 (Homo sapiens, UniProt O75469); assay: Activation of PXR (unknown origin) at 1 uM; type: ADME
T3 sequence (O75469 whole entry): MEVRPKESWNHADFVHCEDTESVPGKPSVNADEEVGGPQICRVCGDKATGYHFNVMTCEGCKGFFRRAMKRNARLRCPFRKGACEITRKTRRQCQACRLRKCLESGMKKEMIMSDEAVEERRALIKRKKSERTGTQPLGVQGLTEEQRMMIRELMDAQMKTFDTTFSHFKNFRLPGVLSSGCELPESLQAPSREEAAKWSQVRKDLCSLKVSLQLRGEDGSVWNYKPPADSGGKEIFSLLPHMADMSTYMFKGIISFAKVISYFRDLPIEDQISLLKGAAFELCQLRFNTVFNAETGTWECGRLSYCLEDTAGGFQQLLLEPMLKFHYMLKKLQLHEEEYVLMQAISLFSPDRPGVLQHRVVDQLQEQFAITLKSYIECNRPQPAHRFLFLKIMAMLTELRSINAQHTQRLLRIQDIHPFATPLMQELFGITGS

[6] = molecular target: T1, Nuclear receptor ROR-gamma (Mus musculus); assay: In vivo inhibition of RORgammat in mouse assessed as reduction in IL-17a production at 30 mg/kg, po measured after 1 hr relative to control; type: functional, organism-based
[7] = Protein binding in mouse plasma; type: ADME, cell-free; conditions: read-out: PPB (converted)
[8] = AUC in rat at 1000 mg/kg, po measured on day 1; type: ADME, organism-based; conditions: in vivo
[9] = Metabolic stability in human liver microsomes assessed as half life; type: ADME, Microsome
[10] = Cmax in rat at 1000 mg/kg, po measured on day 5; type: ADME, organism-based; set-up: dose 1000 mg/kg, route oral; conditions: in vivo
[11] = Clearance in rat at 1 mg/kg, iv; type: ADME, organism-based; conditions: in vivo
CYP3A4 [12] = molecular target: T4, CYP3A4 (Homo sapiens, UniProt P08684); assay: Inhibition of CYP3A4 (unknown origin) at 1 uM; type: ADME
[13] = Metabolic stability in rat liver microsomes assessed as half life; type: ADME, Microsome
Cytochrome P450 2C19 = Cytochrome P450 2C19 (Homo sapiens, UniProt P33261); assay: Inhibition of CYP2C19 (unknown origin); type: ADME
[14] = Oral bioavailability in rat at 1 mg/kg; type: ADME, organism-based; conditions: in vivo
[15] = Protein binding in rat plasma; type: ADME, cell-free; conditions: read-out: PPB (converted)
[16] = Solubility of compound by pH 2; type: physicochemical; conditions: buffer
[17] = Half life in rat at 1 mg/kg, iv; type: ADME, organism-based; conditions: in vivo
[18] = AUC in rat at 5 mg/kg, po; type: ADME, organism-based; conditions: in vivo
CYP3A4 [19] = molecular target: T4, CYP3A4; assay: Inhibition of CYP3A4 (unknown origin) at 10 uM; type: ADME
[20] = Plasma concentration in mouse at 30 mg/kg, po measured after 1 hr; type: ADME, organism-based
[21] = Volume of distribution in rat at 1 mg/kg, iv; type: ADME, organism-based; conditions: in vivo
[22] = Cmax in rat at 5 mg/kg, po; type: ADME, organism-based; set-up: dose 5 mg/kg, route oral; conditions: in vivo
[23] = Solubility of compound by pH 7; type: physicochemical; conditions: buffer
[24] = AUC in rat at 1000 mg/kg, po measured on day 5; type: ADME, organism-based; conditions: in vivo
[25] = Plasma concentration in mouse at 3 mg/kg, po measured after 1 hr; type: ADME, organism-based
[26] = molecular target: T3, Nuclear receptor subfamily 1 group I member 2; assay: Activation of PXR (unknown origin) at 5 uM; type: ADME
[27] = AUC in rat at 300 mg/kg, po measured on day 1; type: ADME, organism-based; conditions: in vivo
[28] = Plasma concentration in mouse at 30 mg/kg, po measured after 4 hrs; type: ADME, organism-based
Cytochrome P450 2C9 = Cytochrome P450 2C9 (Homo sapiens, UniProt P11712); assay: Inhibition of CYP2C9 (unknown origin); type: ADME
[29] = Plasma concentration in mouse at 30 mg/kg, po measured after 7 hrs; type: ADME, organism-based
[30] = Plasma concentration in mouse at 30 mg/kg, po measured after 24 hrs; type: ADME, organism-based
[31] = Plasma concentration in mouse at 30 mg/kg, po measured after 2 hrs; type: ADME, organism-based
[32] = molecular target: T1, Nuclear receptor ROR-gamma (Mus musculus); assay: In vivo inhibition of RORgammat in mouse assessed as reduction in IL-17a production at 30 mg/kg, po measured after 24 hrs relative to control; type: functional, organism-based
[33] = Cmax in rat at 300 mg/kg, po measured on day 5; type: ADME, organism-based; set-up: dose 300 mg/kg, route oral; conditions: in vivo
[34] = AUC in rat at 300 mg/kg, po measured on day 5; type: ADME, organism-based; conditions: in vivo
[35] = molecular target: T1, Nuclear receptor ROR-gamma (Mus musculus); assay: In vivo inhibition of RORgammat in mouse assessed as reduction in IL-17a production at 30 mg/kg, po measured after 0.5 hrs relative to control; type: functional, organism-based
Cytochrome P450 2C8 = molecular target: T5, Cytochrome P450 2C8 (Homo sapiens, UniProt P10632); assay: Inhibition of CYP2C8 (unknown origin); type: ADME
T5 sequence (P10632 whole entry): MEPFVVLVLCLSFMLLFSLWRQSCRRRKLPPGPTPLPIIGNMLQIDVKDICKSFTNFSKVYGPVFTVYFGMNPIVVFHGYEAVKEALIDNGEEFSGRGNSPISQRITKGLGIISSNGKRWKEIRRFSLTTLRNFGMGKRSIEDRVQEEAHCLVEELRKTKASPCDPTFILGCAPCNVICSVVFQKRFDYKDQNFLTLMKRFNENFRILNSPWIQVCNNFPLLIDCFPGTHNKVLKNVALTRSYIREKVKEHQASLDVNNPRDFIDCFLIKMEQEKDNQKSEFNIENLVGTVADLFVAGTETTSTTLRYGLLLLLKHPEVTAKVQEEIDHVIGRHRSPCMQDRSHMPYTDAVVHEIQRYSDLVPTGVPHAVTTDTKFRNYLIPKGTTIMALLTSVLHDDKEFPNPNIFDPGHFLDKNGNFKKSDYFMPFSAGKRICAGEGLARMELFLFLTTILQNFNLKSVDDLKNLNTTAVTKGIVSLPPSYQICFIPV

[36] = Cmax in rat at 300 mg/kg, po measured on day 1; type: ADME, organism-based; set-up: dose 300 mg/kg, route oral; conditions: in vivo
[37] = molecular target: T1, Nuclear receptor ROR-gamma (Mus musculus); assay: In vivo inhibition of RORgammat in mouse assessed as reduction in IL-17a production at 30 mg/kg, po measured after 2 hrs relative to control; type: functional, organism-based
[38] = Plasma concentration in mouse at 30 mg/kg, po measured after 0.5 hrs; type: ADME, organism-based
[39] = molecular target: T1, Nuclear receptor ROR-gamma (Mus musculus); assay: In vivo inhibition of RORgammat in mouse assessed as reduction in IL-17a production at 30 mg/kg, po measured after 4 hrs relative to control; type: functional, organism-based
[40] = molecular target: T1, Nuclear receptor ROR-gamma (Mus musculus); assay: In vivo inhibition of RORgammat in mouse assessed as reduction in IL-17a production at 30 mg/kg, po measured after 7 hrs relative to control; type: functional, organism-based

T4 sequence (P08684 whole entry): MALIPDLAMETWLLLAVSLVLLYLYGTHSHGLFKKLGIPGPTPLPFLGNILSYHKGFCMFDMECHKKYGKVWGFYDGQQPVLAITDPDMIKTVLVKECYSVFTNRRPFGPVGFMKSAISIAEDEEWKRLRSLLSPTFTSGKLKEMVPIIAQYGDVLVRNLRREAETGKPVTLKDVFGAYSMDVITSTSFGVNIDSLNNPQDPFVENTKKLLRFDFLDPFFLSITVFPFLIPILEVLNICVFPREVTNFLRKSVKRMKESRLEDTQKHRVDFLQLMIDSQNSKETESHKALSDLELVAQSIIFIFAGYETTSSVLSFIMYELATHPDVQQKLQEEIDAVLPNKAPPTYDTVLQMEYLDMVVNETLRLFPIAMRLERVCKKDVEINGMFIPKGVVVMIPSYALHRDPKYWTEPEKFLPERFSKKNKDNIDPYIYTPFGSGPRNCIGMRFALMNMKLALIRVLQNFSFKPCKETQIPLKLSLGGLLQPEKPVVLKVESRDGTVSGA
Chain of Cytochrome P450 2C19 (P33261 whole entry): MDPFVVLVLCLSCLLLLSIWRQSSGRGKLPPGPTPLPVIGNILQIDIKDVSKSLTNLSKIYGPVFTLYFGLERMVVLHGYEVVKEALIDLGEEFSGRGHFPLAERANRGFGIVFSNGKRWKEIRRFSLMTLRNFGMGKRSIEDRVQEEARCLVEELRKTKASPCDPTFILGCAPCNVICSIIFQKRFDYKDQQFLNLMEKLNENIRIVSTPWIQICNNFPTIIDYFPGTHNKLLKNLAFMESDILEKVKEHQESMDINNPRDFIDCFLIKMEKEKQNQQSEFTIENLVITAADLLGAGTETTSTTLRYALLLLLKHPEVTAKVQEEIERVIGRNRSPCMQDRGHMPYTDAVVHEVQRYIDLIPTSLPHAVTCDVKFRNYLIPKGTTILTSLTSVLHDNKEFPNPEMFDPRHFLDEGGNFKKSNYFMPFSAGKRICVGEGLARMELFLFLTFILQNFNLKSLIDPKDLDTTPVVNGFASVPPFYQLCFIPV
Chain of Cytochrome P450 2C9 (P11712 whole entry): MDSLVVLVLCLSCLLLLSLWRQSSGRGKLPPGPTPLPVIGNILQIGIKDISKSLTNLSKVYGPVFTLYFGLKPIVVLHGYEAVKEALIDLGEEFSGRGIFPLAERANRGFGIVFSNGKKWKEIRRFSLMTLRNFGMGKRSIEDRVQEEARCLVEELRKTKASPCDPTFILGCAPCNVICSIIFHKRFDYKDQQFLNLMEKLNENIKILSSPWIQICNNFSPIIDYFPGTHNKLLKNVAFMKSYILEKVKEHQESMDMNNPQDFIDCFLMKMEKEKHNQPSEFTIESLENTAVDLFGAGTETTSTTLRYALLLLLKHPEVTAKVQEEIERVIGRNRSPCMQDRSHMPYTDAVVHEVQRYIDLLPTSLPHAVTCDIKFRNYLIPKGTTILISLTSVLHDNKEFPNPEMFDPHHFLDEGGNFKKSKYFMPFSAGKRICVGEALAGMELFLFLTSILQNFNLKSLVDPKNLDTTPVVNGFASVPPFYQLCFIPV

| fraction unbound [1] | IC50 [3] | Activity [5] | inhibition [6] | fraction unbound [7] | half-life [9] | clearance [11] | inhibition at 1 µM (CYP3A4 [12]) | half-life [13] | bioavailability [14] | solubility [16] | half-life [17] | AUC [18] | inhibition at 10 µM (CYP3A4 [19]) | concentration at 1 h [20] | Vd [21] | Cmax [22] | solubility [23] | Structure (SMILES) | further results |
| --- | --- | --- | --- | --- | --- | --- | --- | --- | --- | --- | --- | --- | --- | --- | --- | --- | --- | --- | --- |
| 0.077 | 196 nM | 8.5% | 84% | 0.058 | > 3 h | 25 mL/min/kg | 8.1% | 2.47 h | 47% | 18 µM (≈ 12.2 µg/mL) | 4.3 h | 1.57 µg·h/mL | 26% | 10.2 µM | 7.7 L/kg | 0.23 µM | 35 µM (≈ 23.7 µg/mL) | C[C@H](NS(=O)(=O)c1ccc(-c2sc(-c3nnc(C(C)(C)O)o3)nc2C(=O)N2CCC(F)(F)CC2)c(Cl)c1Cl)C(F)(F)F | inhibition [2]: 69%; Cmax [4]: 24.5 µg/mL; AUC [8]: 274 µg·h/mL; Cmax [10]: 3.16 µg/mL; IC50 (Cytochrome P450 2C19): 6700 nM; fraction unbound [15]: 0.095; AUC [24]: 51 µg·h/mL; concentration at 1 h [25]: 0.49 µM |
| 0.003 | 2500 nM | 8.9% | 68% | 0.002 | > 3 h | 2.9 mL/min/kg | -1% | > 3 h | 112% | < 4 µM | 7.6 h | 32.7 µg·h/mL | 3.4% | 52.1 µM | 1.7 L/kg | 3.8 µM | 355 µM (≈ 208 µg/mL) | CC[C@H](NS(=O)(=O)c1ccc(-c2sc(CC(C)(C)C(=O)O)nc2CC2CCC2)c(C(F)F)c1F)C(F)(F)F | Activity [26]: 21%; AUC [27]: 4710 µg·h/mL; concentration at 4 h [28]: 39.7 µM; IC50 (Cytochrome P450 2C9): 6300 nM; concentration at 7 h [29]: 43.1 µM; concentration at 24 h [30]: 2.2 µM; concentration at 2 h [31]: 46.4 µM; inhibition [32]: 39%; Cmax [33]: 151 µg/mL; AUC [34]: 1790 µg·h/mL; inhibition [35]: 73%; IC50 (Cytochrome P450 2C8): 1800 nM; Cmax [36]: 303 µg/mL; inhibition [37]: 75%; concentration at 0.5 h [38]: 61.4 µM; inhibition [39]: 61%; inhibition [40]: 46% |
